Among the data in ChEMBL document CHEMBL1201862, “PubChem BioAssay data set” (2004) are AC50, EC50 and IC50 values, retold here.

SMILES strings stand for the structures. Active and inactive are the calls of the source. Bounds are passed on as bounds.

For assay [1], the system named is HEK293. As to the kind of experiment: EBV LMP1 TES2 canonical NF-kB signalling blockers – cell-based, HEK293, luciferase, cherry-pick, dose response (AID 588343). Type of assay: functional. The conditions noted are these: Homo sapiens.
Assay [2] in a line: bead-based luminescence quenchers, dual-tagged ARNT – biochemical, AlphaScreen, cherry-pick, artefact control for ARNT-TACC3 interaction inhibitor project, dose response (AID 651705).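 Note: AlphaScreen bead proximity signal that flags compounds interfering with the detection technology; potency reflects signal decrease which marks the compound as an assay artifact.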 Type of assay: functional.
Assay [3] deals with T1, Insulin-degrading enzyme (Homo sapiens, UniProt P14735).
T1 sequence (P14735 whole entry): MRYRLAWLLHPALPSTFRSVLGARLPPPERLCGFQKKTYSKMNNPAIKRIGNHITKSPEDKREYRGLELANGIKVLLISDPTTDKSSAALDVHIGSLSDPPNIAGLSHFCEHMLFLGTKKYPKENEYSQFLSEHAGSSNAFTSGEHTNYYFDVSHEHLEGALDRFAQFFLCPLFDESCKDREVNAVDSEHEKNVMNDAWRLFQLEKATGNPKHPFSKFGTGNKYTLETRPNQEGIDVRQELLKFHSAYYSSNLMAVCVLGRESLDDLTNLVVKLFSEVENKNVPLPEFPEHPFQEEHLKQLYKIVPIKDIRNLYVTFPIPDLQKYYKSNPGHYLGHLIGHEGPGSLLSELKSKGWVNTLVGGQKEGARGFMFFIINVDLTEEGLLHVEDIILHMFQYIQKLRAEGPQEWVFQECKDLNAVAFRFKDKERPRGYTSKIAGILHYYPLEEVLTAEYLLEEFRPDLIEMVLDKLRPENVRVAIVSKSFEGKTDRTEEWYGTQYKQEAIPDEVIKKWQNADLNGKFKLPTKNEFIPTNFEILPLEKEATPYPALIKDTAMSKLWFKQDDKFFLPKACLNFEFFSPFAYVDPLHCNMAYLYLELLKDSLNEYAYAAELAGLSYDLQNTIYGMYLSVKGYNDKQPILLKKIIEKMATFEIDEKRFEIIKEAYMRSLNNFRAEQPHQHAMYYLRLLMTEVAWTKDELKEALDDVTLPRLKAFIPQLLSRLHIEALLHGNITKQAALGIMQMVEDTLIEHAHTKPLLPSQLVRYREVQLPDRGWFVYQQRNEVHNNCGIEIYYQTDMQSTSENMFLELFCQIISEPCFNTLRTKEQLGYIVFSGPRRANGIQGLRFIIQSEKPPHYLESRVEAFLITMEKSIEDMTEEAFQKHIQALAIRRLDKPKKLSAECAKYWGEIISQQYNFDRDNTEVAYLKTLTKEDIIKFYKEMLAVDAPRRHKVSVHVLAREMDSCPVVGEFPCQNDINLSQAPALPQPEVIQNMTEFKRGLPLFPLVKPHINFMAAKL
As to the kind of experiment: recombinant IDE activation, cell-free – biochemical, fluorescence polarization, counter-screen for IDE activator project, dose response (AID 588681).

Assay [4] addresses T1, Insulin-degrading enzyme. As to the kind of experiment: cellular IDE activation of Abeta substrate cleavage – fluorescence polarization, HEK cells, dose response (AID 588439). Type of assay: functional, cell-based.
The subject of assay [5] is HEK293. Put plainly: membrane integrity loss in HEK cells – cell-based, fluorescence, cytotoxicity control for IDE activator project, dose response (AID 588440).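 Note: cytotoxicity by LDH release measuring loss of membrane integrity.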 Type of assay: functional. The conditions noted are these: Homo sapiens.
Assay [6] has as its system HEK293. As to the kind of experiment: optical interference in Abeta FP readout, dose response, artefact control for IDE activator project, biochemical, fluorescence polarization (AID 588442). Type of assay: functional, cell-based. The conditions noted are these: Homo sapiens.
For assay [7], the target named is T2, Caspase-3 (Homo sapiens, UniProt P42574).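 Note: Dose-response selectivity test against caspase-3 for candidate inhibitors of sentrin-specific proteases (SENPs).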
T2 sequence (P42574 whole entry): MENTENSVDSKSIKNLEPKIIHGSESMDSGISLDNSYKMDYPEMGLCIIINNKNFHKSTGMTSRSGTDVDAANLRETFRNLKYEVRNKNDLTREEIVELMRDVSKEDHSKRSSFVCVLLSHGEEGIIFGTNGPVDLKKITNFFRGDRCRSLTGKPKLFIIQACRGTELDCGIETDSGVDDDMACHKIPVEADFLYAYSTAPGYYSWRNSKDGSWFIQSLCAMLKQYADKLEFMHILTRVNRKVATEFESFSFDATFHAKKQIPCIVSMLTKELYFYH
Type of assay: functional.

In assay [8] the target is T3, Sentrin-specific protease 7 (Homo sapiens, UniProt Q9BQF6).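 Note: Luminescence-based dose-response confirmation of ultra-high-throughput screening hits, measuring inhibition of SENP7.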
T3 sequence (Q9BQF6 whole entry): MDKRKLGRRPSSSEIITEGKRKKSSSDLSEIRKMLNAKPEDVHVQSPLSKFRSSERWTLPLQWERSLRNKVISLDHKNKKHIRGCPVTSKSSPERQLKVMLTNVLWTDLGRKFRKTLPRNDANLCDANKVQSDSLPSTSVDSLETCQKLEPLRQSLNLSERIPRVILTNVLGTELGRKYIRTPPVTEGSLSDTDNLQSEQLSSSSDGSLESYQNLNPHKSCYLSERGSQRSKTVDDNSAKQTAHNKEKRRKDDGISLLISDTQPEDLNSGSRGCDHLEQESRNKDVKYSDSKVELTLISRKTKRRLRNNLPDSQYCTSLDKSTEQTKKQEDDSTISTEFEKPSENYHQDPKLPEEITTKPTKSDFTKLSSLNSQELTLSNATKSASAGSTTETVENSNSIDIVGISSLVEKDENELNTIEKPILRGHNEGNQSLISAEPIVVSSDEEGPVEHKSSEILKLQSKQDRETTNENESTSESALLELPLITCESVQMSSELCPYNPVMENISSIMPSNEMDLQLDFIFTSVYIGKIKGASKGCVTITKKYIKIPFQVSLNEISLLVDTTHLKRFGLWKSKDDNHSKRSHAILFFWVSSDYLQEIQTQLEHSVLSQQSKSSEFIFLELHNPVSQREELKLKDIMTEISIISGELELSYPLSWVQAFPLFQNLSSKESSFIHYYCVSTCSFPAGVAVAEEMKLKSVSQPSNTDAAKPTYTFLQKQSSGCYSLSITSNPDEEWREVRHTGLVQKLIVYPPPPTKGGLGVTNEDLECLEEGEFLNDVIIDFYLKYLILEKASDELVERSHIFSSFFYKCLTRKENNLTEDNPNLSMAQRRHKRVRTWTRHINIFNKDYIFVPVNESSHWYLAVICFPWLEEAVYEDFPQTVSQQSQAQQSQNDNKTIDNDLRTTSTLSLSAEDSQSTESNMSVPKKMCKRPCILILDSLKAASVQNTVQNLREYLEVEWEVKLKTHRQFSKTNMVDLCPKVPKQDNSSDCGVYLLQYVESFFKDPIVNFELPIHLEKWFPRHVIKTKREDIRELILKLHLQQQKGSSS
Type of assay: functional.

Assay [9] concerns the target T4, Sentrin-specific protease 6 (Homo sapiens, UniProt Q9GZR1).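 Note: Luminescence-based dose-response confirmatory assay of SENP6 inhibition, following up an ultra-high-throughput screen.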
T4 sequence (Q9GZR1 whole entry): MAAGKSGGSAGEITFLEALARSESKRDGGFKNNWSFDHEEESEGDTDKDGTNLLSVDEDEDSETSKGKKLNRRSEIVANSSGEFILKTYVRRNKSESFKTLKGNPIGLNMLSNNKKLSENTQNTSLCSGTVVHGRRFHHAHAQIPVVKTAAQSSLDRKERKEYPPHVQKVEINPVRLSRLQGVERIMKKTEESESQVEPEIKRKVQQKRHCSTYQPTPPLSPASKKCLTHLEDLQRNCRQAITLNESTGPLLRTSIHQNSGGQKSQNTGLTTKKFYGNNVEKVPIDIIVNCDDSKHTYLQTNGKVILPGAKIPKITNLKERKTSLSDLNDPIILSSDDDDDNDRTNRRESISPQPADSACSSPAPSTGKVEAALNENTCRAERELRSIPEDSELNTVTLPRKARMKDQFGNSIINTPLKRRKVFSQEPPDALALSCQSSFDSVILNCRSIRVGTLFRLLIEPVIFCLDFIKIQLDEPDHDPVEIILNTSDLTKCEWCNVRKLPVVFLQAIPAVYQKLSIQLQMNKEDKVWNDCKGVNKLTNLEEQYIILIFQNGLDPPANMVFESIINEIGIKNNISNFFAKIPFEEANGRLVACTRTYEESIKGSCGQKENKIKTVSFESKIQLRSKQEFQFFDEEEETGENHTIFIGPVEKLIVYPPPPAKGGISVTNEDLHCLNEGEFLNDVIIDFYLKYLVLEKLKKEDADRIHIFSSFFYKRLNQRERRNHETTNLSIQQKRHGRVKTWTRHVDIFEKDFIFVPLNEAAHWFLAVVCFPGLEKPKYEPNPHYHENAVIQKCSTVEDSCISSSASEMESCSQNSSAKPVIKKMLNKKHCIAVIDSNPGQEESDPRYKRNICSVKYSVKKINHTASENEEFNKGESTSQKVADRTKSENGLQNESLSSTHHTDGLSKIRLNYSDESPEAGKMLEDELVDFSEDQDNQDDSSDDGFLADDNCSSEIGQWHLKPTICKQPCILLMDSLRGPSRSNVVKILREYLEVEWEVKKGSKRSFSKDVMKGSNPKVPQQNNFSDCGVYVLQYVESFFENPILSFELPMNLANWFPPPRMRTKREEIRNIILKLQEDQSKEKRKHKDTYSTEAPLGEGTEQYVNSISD
Type of assay: functional.

Assay [10] has as its target T5, Sentrin-specific protease 8 (Homo sapiens, UniProt Q96LD8).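 Note: luminescence read-out of SENP8 inhibition, dose-response confirmation following an ultra-high-throughput screen.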
T5 sequence (Q96LD8 whole entry): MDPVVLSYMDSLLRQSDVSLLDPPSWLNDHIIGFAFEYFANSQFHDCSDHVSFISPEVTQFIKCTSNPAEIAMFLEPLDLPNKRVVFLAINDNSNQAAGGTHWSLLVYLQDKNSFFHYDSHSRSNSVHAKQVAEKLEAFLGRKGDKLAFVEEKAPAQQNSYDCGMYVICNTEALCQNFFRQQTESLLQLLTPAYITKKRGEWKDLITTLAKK
Type of assay: functional.

Assay [11] can be described thus: HEK-293T viability loss after treatment – luminescence, T-cell screen hits, cytotoxicity control for TCR NF-kB inhibitor project, dose response (AID 489026).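 Note: cells exposed to compound about 14 hours before the viability readout.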 Type of assay: functional, cell-based.
For assay [12], the target named is T6, Carboxy-terminal domain RNA polymerase II polypeptide A small phosphatase 1 (Homo sapiens, UniProt Q9GZU7).
T6 sequence (Q9GZU7 whole entry): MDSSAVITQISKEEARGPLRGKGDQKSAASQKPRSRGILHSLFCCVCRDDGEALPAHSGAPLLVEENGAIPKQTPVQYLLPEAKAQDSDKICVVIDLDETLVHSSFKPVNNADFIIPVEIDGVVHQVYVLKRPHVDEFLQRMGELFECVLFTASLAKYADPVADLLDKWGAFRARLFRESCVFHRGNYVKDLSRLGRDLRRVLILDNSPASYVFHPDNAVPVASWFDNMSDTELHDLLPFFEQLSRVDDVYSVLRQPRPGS
Put plainly: CTDSP1 inhibitors, concentration-response, biochemical, absorbance readout, ultra-high-throughput screen actives (AID 540297). Type of assay: functional.

For assay [13], the target named is T7, Apoptotic protease-activating factor 1 (Homo sapiens, UniProt O14727).
T7 sequence (O14727 whole entry): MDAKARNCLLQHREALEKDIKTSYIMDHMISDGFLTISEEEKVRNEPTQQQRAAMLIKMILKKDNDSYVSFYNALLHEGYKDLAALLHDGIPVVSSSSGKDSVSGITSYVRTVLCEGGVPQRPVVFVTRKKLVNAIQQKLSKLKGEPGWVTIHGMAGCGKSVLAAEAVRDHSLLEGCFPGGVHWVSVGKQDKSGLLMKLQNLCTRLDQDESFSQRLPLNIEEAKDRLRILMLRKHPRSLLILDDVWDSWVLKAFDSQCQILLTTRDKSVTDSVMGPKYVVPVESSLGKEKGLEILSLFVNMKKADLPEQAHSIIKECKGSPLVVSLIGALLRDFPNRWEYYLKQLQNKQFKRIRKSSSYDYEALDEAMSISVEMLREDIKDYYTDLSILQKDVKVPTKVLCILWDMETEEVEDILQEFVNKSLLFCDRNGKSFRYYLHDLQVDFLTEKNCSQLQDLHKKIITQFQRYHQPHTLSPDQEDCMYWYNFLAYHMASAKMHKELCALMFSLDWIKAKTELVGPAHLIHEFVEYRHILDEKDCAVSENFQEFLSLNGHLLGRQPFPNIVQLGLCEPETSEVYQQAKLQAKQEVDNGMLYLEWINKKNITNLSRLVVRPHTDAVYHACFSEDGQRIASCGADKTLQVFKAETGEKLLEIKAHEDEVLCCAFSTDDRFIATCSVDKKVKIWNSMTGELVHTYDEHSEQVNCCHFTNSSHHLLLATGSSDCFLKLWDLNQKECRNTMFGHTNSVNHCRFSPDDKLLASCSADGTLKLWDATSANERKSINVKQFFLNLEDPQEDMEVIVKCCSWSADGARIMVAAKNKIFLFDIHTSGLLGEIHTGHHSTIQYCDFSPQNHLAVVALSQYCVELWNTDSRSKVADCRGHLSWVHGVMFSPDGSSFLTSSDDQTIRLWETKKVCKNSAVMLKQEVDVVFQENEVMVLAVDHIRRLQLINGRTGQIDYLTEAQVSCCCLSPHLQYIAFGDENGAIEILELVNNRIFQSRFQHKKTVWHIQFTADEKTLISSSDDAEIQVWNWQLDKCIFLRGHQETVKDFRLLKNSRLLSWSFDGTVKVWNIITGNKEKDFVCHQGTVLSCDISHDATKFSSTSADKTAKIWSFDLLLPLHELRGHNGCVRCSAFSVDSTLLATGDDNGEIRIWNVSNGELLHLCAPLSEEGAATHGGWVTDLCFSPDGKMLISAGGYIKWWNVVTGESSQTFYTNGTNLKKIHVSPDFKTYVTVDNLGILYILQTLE
Type of assay: functional.

As for `Cc1nc2ncccn2c1-c1csc(Nc2ccccc2)n1`, the AC50 in assay [1] is 28.1 µM (active); in assay [2] it was 93.5 µM (active).
For `CSc1ccccc1OCc1cc(C(=O)NCCn2nc(C)cc2C)no1`, the EC50 in assay [3], in [4] and in assay [6] was > 54.7 µM (inactive) each time. For the same compound, the IC50 in assay [5] is > 89.2 µM (inactive).
Regarding `Clc1ccc(-c2nnc(NC3=NCCCCC3)o2)cc1`, the IC50 in assay [7] is 15 µM (active); in assay [8], 15.4 µM (active); in assay [9], 30.1 µM (active); in [10], 29.8 µM (active). Moreover, the AC50 in [1] was 1.84 µM (active).
On to `COc1cc2nc(NC(=O)c3ccco3)sc(=O)c2cc1OC`, for which the IC50 is > 80 µM (inactive) in assay [11] and 10.5 µM (active) in assay [12]. In assay [1], the AC50 was 6.84 µM (active).
Regarding `CCCN(CC(=O)Nc1ccccc1C)C(=O)CCCOc1ccc(Br)cc1`, the IC50 in [13] is > 100 µM (inactive).
